The supplement of paper PMC4977894
± gives the standard deviation of the averaged measurements.

Columns and labels:
[1] = tested on: Homo sapiens (human subject panel, olfactory perception); assay: perceived odor familiarity rating (rating 0-100); higher = more familiar
Description: (§1)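 Human olfactory psychophysics. 55 healthy subjects (after excluding 6 low performers) sniffed 1 mL of each odorant diluted in paraffin oil (vials, two dilutions per molecule, 20 molecules presented twice). Each subject rated intensity, pleasantness and familiarity on a 0-100 slider, starting at 50 and required to move. Ratings were given only when the subject reported detecting a smell; per-subject ratings are averaged over subjects.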

[2] = tested on: Homo sapiens (human subject panel, olfactory perception); assay: perceived odor pleasantness rating (rating 0-100); higher = more pleasant
Description: as §1

[3] = tested on: Homo sapiens (human subject panel, olfactory perception); assay: perceived odor intensity rating (rating 0-100); higher = stronger perceived smell
Description: as §1

[4] = odor dilution in paraffin oil: 1/10
[5] = odor dilution in paraffin oil: 1/1,000
[6] = odor dilution in paraffin oil: 1/100,000
[7] = odor dilution in paraffin oil: 1/10,000,000

Row | Compound | perceived odor familiarity rating [1, 4] | perceived odor familiarity rating [1, 5] | perceived odor pleasantness rating [2, 4] | perceived odor pleasantness rating [2, 5] | perceived odor intensity rating [3, 4] | perceived odor intensity rating [3, 5] | perceived odor familiarity rating [1, 6] | perceived odor pleasantness rating [2, 6] | perceived odor intensity rating [3, 6] | perceived odor familiarity rating [1, 7] | perceived odor pleasantness rating [2, 7] | perceived odor intensity rating [3, 7]
1 | CCCCC(C)CCC(=O)O (racemic) [(±)-4-Methyloctanoic acid] | 41.7 ± 32 | 48.6 ± 30 | 27.4 ± 25 | 29 ± 20 | 72.5 ± 25 | 67.2 ± 25 | – | – | – | – | – | –
2 | NC(Cc1ccccc1)C(=O)O (racemic) [DL-Phenylalanine (replicate)] | 48.2 ± 29 | 39.2 ± 26 | 44.6 ± 25 | 50.4 ± 23 | 66.3 ± 24 | 39.2 ± 29 | – | – | – | – | – | –
3 | NC(Cc1ccccc1)C(=O)O (racemic) [DL-Phenylalanine] | 43.4 ± 31 | 41.9 ± 29 | 38.2 ± 26 | 51.4 ± 27 | 70 ± 24 | 35.2 ± 29 | – | – | – | – | – | –
4 | O=C(O)C(O)C(O)C(=O)O (racemic) [DL-Tartaric acid] | 40.5 ± 25 | 26.4 ± 28 | 48.3 ± 20 | 52.1 ± 19 | 30.6 ± 30 | 26.4 ± 30 | – | – | – | – | – | –
5 | C=C(C)C1CC=C(C)C(=O)C1 (single isomer, unassigned; (-)) [(-)-Carvone] | 81.2 ± 24 | 77.9 ± 25 | 78.6 ± 16 | 78.2 ± 19 | 84.3 ± 15 | 72.6 ± 20 | – | – | – | – | – | –
6 | C=C1CCC2CC1C2(C)C (single isomer, unassigned; (-)) [(-)-beta-Pinene] | 62.1 ± 31 | 47.8 ± 29 | 50.5 ± 30 | 54.8 ± 22 | 74.2 ± 22 | 32.2 ± 31 | – | – | – | – | – | –
7 | CC(C)=CCCC(C)CCO (single isomer, unassigned; (-)) [(-)-citronellol] | – | 57.9 ± 31 | – | 53.5 ± 30 | – | 71.5 ± 27 | 49.6 ± 28 | 61.3 ± 22 | 41.6 ± 33 | – | – | –
8 | COc1cccc(OC)c1 [1,3-Dimethoxybenzene] | – | 54.1 ± 26 | – | 49.7 ± 26 | – | 68.4 ± 22 | 33.2 ± 27 | 45.8 ± 28 | 32.6 ± 30 | – | – | –
9 | O=C(Cc1ccccc1)Cc1ccccc1 [1,3-Diphenyl-2-propanone] | – | 49.7 ± 34 | – | 32.7 ± 29 | – | 78.1 ± 20 | 48.1 ± 30 | 43 ± 27 | 35.4 ± 28 | – | – | –
10 | SCCCCCCS [1,6-Hexanedithiol] | – | – | – | – | – | – | 51.5 ± 33 | 24.9 ± 26 | 74.8 ± 24 | 36.8 ± 29 | 40.1 ± 25 | 33.8 ± 34
11 | CC12CCC(CC1)C(C)(C)O2 [1,8-cineole] | – | 69.7 ± 25 | – | 62.5 ± 24 | – | 70.1 ± 24 | 53.5 ± 30 | 61.5 ± 25 | 45.5 ± 29 | – | – | –
12 | c1coc(Cn2cccc2)c1 [1-Furfurylpyrrole] | – | 40.7 ± 32 | – | 28.7 ± 24 | – | 76.3 ± 22 | 34.3 ± 25 | 46.8 ± 19 | 30.9 ± 29 | – | – | –
13 | C=CC(O)CCCC (centres undefined) [1-Hepten-3-ol] | – | 41 ± 31 | – | 24.3 ± 25 | – | 83.2 ± 18 | 44.4 ± 32 | 37.3 ± 26 | 53.7 ± 31 | – | – | –
14 | CCCCCCCCCCCCCCCCO [1-Hexadecanol] | 40.1 ± 30 | 42.6 ± 27 | 43 ± 24 | 35.4 ± 24 | 43.5 ± 31 | 35.8 ± 26 | – | – | – | – | – | –
15 | COc1cc(C)ccc1C(C)C [1-Methyl-3-methoxy-4-isopropylbenzene] | – | 51.6 ± 30 | – | 43.8 ± 21 | – | 45.5 ± 28 | 42.9 ± 35 | 47.5 ± 18 | 23.1 ± 25 | – | – | –
16 | C=CC(O)CCCCC (centres undefined) [1-Octen-3-ol] | – | 45.4 ± 32 | – | 40.3 ± 27 | – | 66.5 ± 26 | 39.4 ± 27 | 42.2 ± 20 | 37.7 ± 30 | – | – | –
17 | C=CC(CCCCC)OC(C)=O (centres undefined) [1-Octen-3-yl acetate] | – | 35.2 ± 29 | – | 34.1 ± 22 | – | 55.9 ± 29 | 32.8 ± 27 | 42.9 ± 24 | 26.4 ± 26 | – | – | –

Row | Compound | perceived odor familiarity rating [1, 4] | perceived odor familiarity rating [1, 5] | perceived odor pleasantness rating [2, 4] | perceived odor pleasantness rating [2, 5] | perceived odor intensity rating [3, 4] | perceived odor intensity rating [3, 5] | perceived odor familiarity rating [1, 6] | perceived odor pleasantness rating [2, 6] | perceived odor intensity rating [3, 6] | perceived odor familiarity rating [1, 7] | perceived odor pleasantness rating [2, 7] | perceived odor intensity rating [3, 7]
18 | C=CCCCCCC [1-Octene] | – | 42.9 ± 28 | – | 39.1 ± 24 | – | 39.7 ± 29 | 45.6 ± 31 | 48 ± 26 | 33.6 ± 30 | – | – | –
19 | C=CC(O)CC (centres undefined) [1-Penten-3-ol] | – | 43 ± 35 | – | 40.7 ± 29 | – | 53 ± 32 | 34.7 ± 24 | 43.3 ± 22 | 31.3 ± 32 | – | – | –
20 | CCC(O)c1ccccc1 (centres undefined) [1-Phenyl-1-propanol] | – | 39.2 ± 31 | – | 54 ± 20 | – | 36.6 ± 32 | 25.5 ± 26 | 48.9 ± 19 | 15.2 ± 22 | – | – | –
21 | CCCCCCCCCCCO [1-undecanol] | 51 ± 32 | 37.1 ± 30 | 41 ± 28 | 41.9 ± 28 | 74.9 ± 24 | 42.8 ± 32 | – | – | – | – | – | –
22 | c1coc(CSCc2ccco2)c1 [2,2'-(Thiodimethylene)difuran] | – | 44.9 ± 32 | – | 20.1 ± 23 | – | 77.1 ± 24 | 52 ± 32 | 26.9 ± 24 | 73.5 ± 22 | – | – | –
23 | Cc1nc(C)c(C)nc1C [2,3,5,6-Tetramethylpyrazine] | 41.3 ± 31 | 35.7 ± 28 | 28.7 ± 23 | 49.4 ± 22 | 79.1 ± 18 | 25.8 ± 25 | – | – | – | – | – | –
24 | CCc1nccnc1CC [2,3-Diethylpyrazine] | – | – | – | – | – | – | 55 ± 28 | 34.3 ± 24 | 70.7 ± 26 | 44.9 ± 28 | 40.3 ± 18 | 30.4 ± 29
25 | CC(=O)C(C)=O [2,3-butanedione] | – | 49.3 ± 34 | – | 24.5 ± 19 | – | 81.7 ± 19 | 50 ± 29 | 35.9 ± 22 | 55.8 ± 28 | – | – | –
26 | Cc1nc(C)c(C)s1 [2,4,5-Trimethylthiazole] | – | – | – | – | – | – | 48.4 ± 31 | 33.8 ± 26 | 67.9 ± 26 | 46.4 ± 31 | 44.2 ± 27 | 35.2 ± 31
27 | OC1CSC(O)CS1 (centres undefined) [2,5-Dihydroxy-1,4-dithiane] | 50.9 ± 35 | 51.5 ± 32 | 16.9 ± 25 | 13.8 ± 22 | 86.4 ± 16 | 88.4 ± 16 | – | – | – | – | – | –
28 | COC1=C(C)OC(C)C1=O (centres undefined) [2,5-Dimethyl-4-methoxy-3(2H)-furanone] | – | 45.4 ± 33 | – | 26 ± 19 | – | 74.8 ± 24 | 44.1 ± 28 | 28.2 ± 23 | 56.3 ± 31 | – | – | –
29 | Cc1ccc(C)[nH]1 [2,5-Dimethylpyrrole] | – | 62 ± 28 | – | 53 ± 27 | – | 71.4 ± 23 | 48 ± 31 | 48.2 ± 26 | 50.6 ± 30 | – | – | –
30 | Cc1cnc(C)cn1 [2,5-dimethyl pyrazine] | – | – | – | – | – | – | 43.8 ± 30 | 38.5 ± 21 | 50.3 ± 30 | 37.1 ± 28 | 48.4 ± 24 | 29.3 ± 31
31 | Cc1cccc(C)n1 [2,6-Dimethylpyridine] | – | 47.3 ± 32 | – | 29.8 ± 24 | – | 78.1 ± 20 | 42.5 ± 31 | 35.3 ± 23 | 54.1 ± 32 | – | – | –
32 | CCC(C)c1nccs1 (centres undefined) [2-(1-Methylpropyl)thiazole] | – | 41.3 ± 32 | – | 25.7 ± 25 | – | 83.9 ± 17 | 43.9 ± 31 | 31.8 ± 23 | 55.6 ± 31 | – | – | –
33 | CSCCO [2-(Methylthio)ethanol] | – | 53.8 ± 34 | – | 34.1 ± 31 | – | 77.7 ± 23 | 37.4 ± 31 | 40 ± 18 | 32.3 ± 29 | – | – | –
34 | CC(=O)c1ncc(C)nc1C [2-Acetyl-3,5(6)-dimethylpyrazine] | – | 58.6 ± 36 | – | 31.5 ± 32 | – | 85.4 ± 17 | 58.1 ± 31 | 49.4 ± 29 | 65.1 ± 26 | – | – | –
